Reference: patent US11154554B2, “Therapeutic combinations of a MEK inhibitor and a BTK inhibitor” (Acerta Pharma B.V., priority 2015, dated 2021)
Read-outs that look alike come from different tables or passages of the source.

Columns and labels:
[1] = target: CYP3A4 (Homo sapiens, UniProt P08684); assay: Loss of parent drug as catalyzed by CYPs; format: in vitro ADME; conditions: in vitro
[2] = test system: hepatocytes; assay: In vitro metabolism in hepatocytes with 14C-labeled drug; format: in vitro ADME, mouse, rat, dog, rabbit, monkey, and human
[3] = Glutathione binding and depletion in vitro; format: in vitro ADME
[4] = test system: CYP enzymes; assay: Nonclinical CYP interaction studies; format: in vitro ADME
[5] = test system: B cell receptor; assay: Whole blood B cell receptor signalling assay (CD69 on CD19+ B cells); format: cell-based; conditions: whole blood of four healthy donors, 2 hours with compound, anti-human IgD 10 μg/mL for 18 hours, read-out: EC50, CD69 on gated CD19+ B cells
[6] = test system: BCR activation markers CD69 and CD86; assay: In vivo potency, BCR activation markers after oral gavage; conditions: mice, 3 hours post-dose, BCR stimulated with IgM
Description: Mice were gavaged at increasing drug concentration and sacrificed at one time point (3 hours post-dose). BCR is stimulated with IgM and the expression of activation markers CD69 and CD86 are monitored by flow cytometry to determine ECovalues.
CD86 and CD69 are cell surface proteins that are BCR activation markers. […] BCR was stimulated with IgM and the expression of activation marker CD69 and CD86 are monitored by flow cytometry to determine EC50 values.

[7] = test system: KrasLA2 non-small cell lung cancer (NSCLC) model; assay: KrasLA2 genetic tumor model of NSCLC; format: in vivo, mice; conditions: 15 mg/kg
Text: The model is designed to have sporadic expression in single cells of G12D mutant Kras off its own promoter triggered by spontaneous intrachromosomal recombination. Johnson, et al. Nature 2001, 410, 1111-16. While the mutant Kras protein is expressed in a few cells in all tissues, tumor development is seen only in the lung at high penetrance.

[8] = target: T1, BTK (Mus musculus, UniProt P35991); assay: Molecular probe assay of BTK occupancy in MDSCs of PDA mice; format: in vivo; conditions: 15 mg/kg BID; granulocytic and monocytic MDSC compartments; Day 8, 4 hours post dose
T1 construct: MDSCs were purified from tumor bearing PDA mice; endogenous in cells; host or cells: granulocytic and monocytic MDSCs from PDA mice dosed in vivo
Text: A molecular probe assay was used to calculate the percent irreversible occupancy of total BTK.

[9] = test system: NK cells; assay: NK cell degranulation/ADCC whole blood assay with obinutuzumab; format: cell-based, human; conditions: 1 hour pretreatment, MEC-1 opsonised with obinutuzumab 1 μg/mL, 4 hours
Description: Degranulation in whole blood was performed as follows. […] Exponentially growing cells were used. On the day of the experiment, 8 mL of blood was drawn from a normal volunteer into a test tube containing desirudin to obtain a final concentration of 50 μg/mL. A white blood cell (WBC) count of whole blood was performed. […] The ibrutinib control and two blinded BTK inhibitors were diluted in X-VIVO 15 serum-free hematopoietic cell medium (Lonza Group, Ltd.) to concentrations of 200 μM, 20 μM and 2 μM. 170 μL aliquots of unmanipulated whole blood were incubated with 10 μL BTK inhibitors or X-VIVO 15 medium for one hour into a plate. […] The samples were placed in a 5% CO2 incubator for 4 hours at 37° C.
After 4 hours, the samples were mixed gently and 50 μL aliquots were removed from each well and placed in fluorescence-activated cell sorting (FACS) test tubes. A 20 μL aliquot of anti-CD56-APC antibody and anti-CD107a-PE antibody was added. The samples were incubated for 20 minutes at room temperature in the dark. An aliquot of 2 mL of FACS lysing solution (BD Biosceinces) was added. The samples were again incubated for 5 minutes, and then centrifuged at 2000 rpm for 5 minutes. Supernatant was discarded and the cell pellet was resuspended in 500 μL of PBS. The samples were analyzed on the flow cytometer for CD107a^+ NK cells (CD56^+).

[10] = test system: NK cells; assay: Rituximab ADCC mediated by NK cells; format: cell-based
[11] = test system: CD8^+ T cells; assay: Cytotoxicity assay for CD8+ T cell function; format: cell-based; conditions: relative to vehicle
[12] = test system: CD8^+ T cells; assay: IFN-γ level measurements for CD8+ T cell function; format: cell-based; conditions: relative to vehicle
[13] = test system: human platelet-mediated thrombus formation; assay: In vivo human thrombus formation in VWF HA1 mice (laser injury); conditions: human platelets preincubated with inhibitor, laser-induced injury
[14] = Metabolism in plasma, bile, and urine; format: in vivo; conditions: rats, dogs, and monkeys; preliminary evaluations
[15] = test system: GPVI
[16] = test system: GPVI; assay: GPVI platelet aggregation
[17] = target: EGFR (Homo sapiens, UniProt P00533); assay: EGF receptor phosphorylation in A431 cells
[18] = test system: 80 known pharmacologic targets such as G-protein-coupled receptors, nuclear receptors, proteases, and ion channels; assay: Binding assays on 80 known pharmacologic targets; conditions: screened at 10 μM
[19] = within the tested dose range (through 840 mg); cited from earlier work

Chain of EGFR (P00533 25-1210): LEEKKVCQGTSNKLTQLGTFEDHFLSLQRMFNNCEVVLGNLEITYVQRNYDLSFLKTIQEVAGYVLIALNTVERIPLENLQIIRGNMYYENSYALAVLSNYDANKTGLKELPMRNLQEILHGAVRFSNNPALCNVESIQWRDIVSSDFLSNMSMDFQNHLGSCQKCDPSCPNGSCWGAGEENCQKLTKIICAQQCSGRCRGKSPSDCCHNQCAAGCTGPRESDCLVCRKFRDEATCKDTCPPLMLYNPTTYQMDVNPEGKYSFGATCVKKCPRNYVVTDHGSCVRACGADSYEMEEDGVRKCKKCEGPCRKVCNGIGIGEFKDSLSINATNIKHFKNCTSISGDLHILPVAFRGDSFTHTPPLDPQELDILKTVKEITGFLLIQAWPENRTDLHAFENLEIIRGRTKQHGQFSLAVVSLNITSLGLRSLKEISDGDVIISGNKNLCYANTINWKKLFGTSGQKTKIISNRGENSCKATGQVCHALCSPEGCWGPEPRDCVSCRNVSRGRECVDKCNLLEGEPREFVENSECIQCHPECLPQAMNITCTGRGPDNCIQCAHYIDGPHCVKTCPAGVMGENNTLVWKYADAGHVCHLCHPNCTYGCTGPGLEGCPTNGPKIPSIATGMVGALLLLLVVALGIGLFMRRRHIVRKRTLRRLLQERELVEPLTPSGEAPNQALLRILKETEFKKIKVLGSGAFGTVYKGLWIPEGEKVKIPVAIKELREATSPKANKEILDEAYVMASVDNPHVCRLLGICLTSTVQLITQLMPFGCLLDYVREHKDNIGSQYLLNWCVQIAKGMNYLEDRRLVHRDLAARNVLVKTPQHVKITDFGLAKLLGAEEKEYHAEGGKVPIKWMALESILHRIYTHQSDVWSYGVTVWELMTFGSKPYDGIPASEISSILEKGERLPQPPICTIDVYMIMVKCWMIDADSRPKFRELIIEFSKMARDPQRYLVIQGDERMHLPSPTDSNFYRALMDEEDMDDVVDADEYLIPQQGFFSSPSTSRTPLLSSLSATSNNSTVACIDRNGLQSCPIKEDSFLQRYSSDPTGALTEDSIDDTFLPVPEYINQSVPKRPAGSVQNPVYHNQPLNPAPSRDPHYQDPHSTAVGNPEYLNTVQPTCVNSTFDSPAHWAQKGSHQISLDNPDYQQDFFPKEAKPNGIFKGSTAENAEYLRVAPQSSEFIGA
T1 sequence (P35991 whole entry): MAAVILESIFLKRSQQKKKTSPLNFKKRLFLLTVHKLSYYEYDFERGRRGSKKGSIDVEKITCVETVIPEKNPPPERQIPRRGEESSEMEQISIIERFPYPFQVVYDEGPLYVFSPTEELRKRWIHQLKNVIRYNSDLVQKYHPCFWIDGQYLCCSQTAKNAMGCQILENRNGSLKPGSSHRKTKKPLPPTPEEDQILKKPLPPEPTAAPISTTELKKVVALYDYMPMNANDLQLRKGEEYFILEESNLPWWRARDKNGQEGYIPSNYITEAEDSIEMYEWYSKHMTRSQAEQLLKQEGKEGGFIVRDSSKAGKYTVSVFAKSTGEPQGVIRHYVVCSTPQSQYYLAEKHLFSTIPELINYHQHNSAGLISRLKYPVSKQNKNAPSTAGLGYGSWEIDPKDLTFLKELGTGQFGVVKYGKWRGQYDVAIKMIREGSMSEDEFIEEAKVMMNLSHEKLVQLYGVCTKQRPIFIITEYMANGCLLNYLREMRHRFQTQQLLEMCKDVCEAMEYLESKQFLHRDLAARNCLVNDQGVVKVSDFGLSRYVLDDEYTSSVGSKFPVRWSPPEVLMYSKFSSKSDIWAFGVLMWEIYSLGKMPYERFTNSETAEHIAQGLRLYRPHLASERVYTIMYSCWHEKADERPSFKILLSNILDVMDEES
Chain of CYP3A4 (P08684 whole entry): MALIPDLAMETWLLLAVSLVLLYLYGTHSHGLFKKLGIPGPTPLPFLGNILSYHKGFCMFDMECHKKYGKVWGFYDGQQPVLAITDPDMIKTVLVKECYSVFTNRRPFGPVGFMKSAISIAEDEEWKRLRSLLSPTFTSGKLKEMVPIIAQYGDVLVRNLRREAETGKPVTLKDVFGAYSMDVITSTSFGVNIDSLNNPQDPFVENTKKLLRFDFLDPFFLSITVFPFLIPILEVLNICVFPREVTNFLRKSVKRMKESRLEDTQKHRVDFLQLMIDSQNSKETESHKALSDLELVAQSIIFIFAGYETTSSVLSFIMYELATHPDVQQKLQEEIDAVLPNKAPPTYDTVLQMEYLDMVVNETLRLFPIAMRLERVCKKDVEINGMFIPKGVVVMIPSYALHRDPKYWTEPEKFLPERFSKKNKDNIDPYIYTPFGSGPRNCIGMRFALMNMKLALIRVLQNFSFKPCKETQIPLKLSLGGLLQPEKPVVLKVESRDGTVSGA

In the case of `CC#CC(=O)N1CCC[C@H]1c1nc(-c2ccc(C(=O)Nc3ccccn3)cc2)c2c(N)nccn12` [Formula (2), (S)-4-(8-amino-3-(1-(but-2-ynoyl)pyrrolidin-2-yl)imidazo[1,5-a]pyrazin-1-yl)-N-(pyridin-2-yl)benzamide], the “CYP responsible for metabolism” value [1] is reported as “metabolized by CYP3A4”, the unique human metabolite ([2]; hepatocytes of six species) is reported as “No unique human metabolite was identified” and the metabolites in hepatocytes ([2]; mouse, rat, dog, rabbit, monkey, and human hepatocytes, 14C-labeled drug) is reported as “two mono-oxidized metabolites and a glutathione conjugate”. The “glutathione binding and depletion” value [3] was “binds to glutathione but does not deplete glutathione”, the “potential for CYP-mediated drug-drug interactions” value [4] was “very unlikely to cause clinical drug-drug interactions” and the EC50 [5] was 8.2 nM. The “in vivo potency at inhibiting expression of activation markers CD69 and CD86” value [6] was “more potent at inhibiting expression of activation makers than Formula (10) (ibrutinib)”, the “effects on TAMs, MDSCs, Tregs, and CD8+ cells” value [7] was “consistent with suppression of the solid tumor microenviroment” and the number of tumors [7] was “fewer overall tumors”. The “tumor volumes versus vehicle” value [7] was “significant decrease”, the “irreversible occupancy of total BTK in MDSCs” value [8] was “Complete BTK occupancy” and the “effect on CD56+/CD107a+ NK cells, obinutuzumab-stimulated degranulation” value [9] was “minimal effect”. The “antagonism of rituximab ADCC effects mediated by NK cells” value [10] was “does not antagonize”, the “CD8+ T cell function as measured by % cytotoxicity” value [11] was “no effect” and the “CD8+ T cell function as measured by IFN-γ level” value [12] was “no effect”. The “effect on human platelet-mediated thrombus formation” value [13] was “no significant effect”, the “metabolic processes in plasma, bile, and urine” value [14] was “metabolic processes of oxidation, glutathione binding, and hydrolysis” and the “inhibition of GPVI platelet aggregation” value [15] was “does not”. For the same compound, the IC50 ([16]; read-out: IC50, GPVI platelet aggregation, purified human platelets, Convulxin (CVX)) was 1150 nM, the “inhibition of in vitro EGFR phosphorylation” value ([17]; 10 μM, A431 human epidermoid cancer cell line) was “no inhibition” and the inhibition at 10 µM ([17]; A-431, read-out: EGF-induced p-EGFR inhibition) was 7%. For the same compound, the “activity in binding assays with 80 known pharmacologic targets” value [18] was “significant activity only against the A3 adenosine receptor”.

With `C=CC(=O)N1CCC[C@@H](n2nc(-c3ccc(Oc4ccccc4)cc3)c3c(N)ncnc32)C1` [Formula (10), 1-[(3R)-3-[4-amino-3-(4-phenoxyphenyl)-1H-pyrazolo[3,4-d]pyrimidin-1-yl]piperidin-1-yl]prop-2-en-1-one, reference compound] the EC50 [5] was 6.1 nM, the “antagonism of rituximab ADCC effects mediated by NK cells” value [10] was “undesirably antagonizes” and the “CD8+ T cell function as measured by % cytotoxicity” value [11] was “affects CD8^+ T cell function”. The “CD8+ T cell function as measured by IFN-γ level” value [12] was “affects CD8^+ T cell function”, the “maximum tolerated dose (MTD)” value [19] was “No maximum tolerated dose (MTD) was apparent” and the “inhibition of GPVI platelet aggregation” value ([16]; human platelets, CVX-induced) was “significantly inhibits”.

For `C=CC(=O)Nc1cccc(Nc2nc(Nc3ccc(OCCOC)cc3)ncc2F)c1` [Formula (17), N-(3-((5-fluoro-2-((4-(2-methoxyethoxy)phenyl)amino)pyrimidin-4-yl)amino)phenyl)acrylamide, reference compound], the EC50 [5] was 121 nM and the “effect on human platelet-mediated thrombus formation” value [13] was “effect similar to Formula (10) (ibrutinib)”.
